Consider 53 compounds from patent publication US8987249B2, “Substituted 2-Aza-bicyclo[2.2.1]heptane-3-carboxylic acid (benzyl-cyano-methyl)-amides inhibitors of Cathepsin C” (Boehringer Ingelheim International GmbH, priority 2013, dated 2015).

The target of this test is recombinant human DPPI (Cathepsin C) (Homo sapiens (Human), UniProt P53634). Kind of test: Inhibition of human DPPI (Cathepsin C). The test is classed as biochemical. The note with it: substrate Gly-Arg-AMC. The method, then: Inhibition of Human DPPI (Cathepsin C)
Bovine serum albumin (BSA; Prod. No. A3059) and Dithiothreitol (DTT; Prod. No D0632) were from Sigma. […] The DPP1 inhibitor Gly-Phe-DMK was purchased from MP Biomedicals (Prod.-No. 03DK00625). The recombinant human DPPI was purchased from Prozymex. All other materials were of highest grade commercially available.
The following buffers were used: MES buffer: 25 mM MES, 50 mM NaCl, 5 mM DTT, adjusted to pH 6.0, containing 0.1% BSA; TAGZyme Buffer: 20 mM NaH2PO4, 150 mM NaCl adjusted to pH 6.0 with HCl
Then, 5 μL of substrate in MES buffer (final concentration 50 μM) were added. The microtiter plates were then incubated at room temperature for 30 min. Then, the reaction was stopped by adding 10 μL of Gly-Phe-DMK in MES-buffer (final concentration 1 μM).
The analysis of the data was performed by calculating the percentage of fluorescence in the presence of test compound in comparison to the fluorescence of the vehicle control after subtracting the background fluorescence using the following formula: (RFU(sample)−RFU(background))*100/(RFU(control)−RFU(background))
Data from these calculations were used to generate IC50 values for inhibition of DPPI, respectively.

recombinant human DPPI (Cathepsin C), sequence (P53634 231-394): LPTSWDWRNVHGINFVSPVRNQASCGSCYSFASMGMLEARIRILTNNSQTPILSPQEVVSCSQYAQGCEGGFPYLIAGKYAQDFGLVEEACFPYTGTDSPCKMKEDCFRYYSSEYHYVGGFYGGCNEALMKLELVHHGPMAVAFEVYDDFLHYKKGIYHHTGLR
recombinant human DPPI (Cathepsin C), sequence (P53634 395-463): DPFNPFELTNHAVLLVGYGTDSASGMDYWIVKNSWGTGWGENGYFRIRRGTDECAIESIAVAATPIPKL
recombinant human DPPI (Cathepsin C), sequence (P53634 25-134): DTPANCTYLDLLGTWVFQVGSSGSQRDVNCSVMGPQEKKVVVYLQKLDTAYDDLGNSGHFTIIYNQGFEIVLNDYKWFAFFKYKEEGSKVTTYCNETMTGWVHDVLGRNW

By IC50 is commonly meant the concentration that inhibits the measured activity by half. With `CN1CCO[C@H]2CN(c3ccc(C[C@@H](C#N)NC(=O)[C@H]4N[C@@H]5CC[C@H]4C5)c(F)c3)CC[C@@H]21` [Example 357], the half-inhibitory concentration (IC50) is 33.8 nM.

As to `Cn1cc2ccc(-c3ccc(C[C@@H](C#N)NC(=O)[C@H]4N[C@H]5C[C@@H]4[C@@H]4C[C@@H]45)c(F)c3)cc2n1` [Example 135], the IC50 is 286 nM.

`N#C[C@H](Cc1ccc(-c2ccc3c(c2)CC(=O)N3C2CCNCC2)cc1F)NC(=O)[C@H]1N[C@@H]2CC[C@H]1C2` [Example 334]: the 50% inhibitory concentration (IC50) stood at 22 nM.

Turning to `CN1CCN(S(=O)(=O)c2cccc(-c3ccc(C[C@@H](C#N)NC(=O)[C@H]4N[C@@H]5CC[C@H]4C5)c(F)c3)c2)CC1` [Example 224], the half-maximal inhibitory concentration (IC50) worked out at 1.2 nM.

Take `Cc1cnn(C)c1-c1ccc(C[C@@H](C#N)NC(=O)[C@H]2N[C@@H]3CC[C@H]2C3)c(F)c1` [Example 126]: the IC50 was found to be 275 nM.

Take `N#C[C@H](Cc1ccc(N2CCC3COCC3C2)cc1F)NC(=O)[C@H]1N[C@@H]2CC[C@H]1C2` (some centres unmarked) [Example 352]: the IC50 amounted to 17.3 nM.

Regarding `COC(=O)c1ccc2[nH]c(=O)c3cc(CC(C#N)NC(=O)[C@H]4N[C@@H]5CC[C@H]4C5)ccc3c2c1` (some centres unmarked) [Example 299], the IC50 amounted to 3.2 nM.

On to `CN1C(=O)Cc2ccc(-c3ccc(CC(C#N)NC(=O)[C@H]4N[C@@H]5CC[C@H]4C5)c(OCc4ccccc4)c3)cc21` (some centres unmarked) [Example 122], for which the half-inhibitory concentration (IC50) worked out at 182 nM.

As to `N#C[C@H](Cc1ccc(N2CCC3CN(C4CCOC4)CC32)cc1F)NC(=O)[C@H]1N[C@@H]2CC[C@H]1C2` (some centres unmarked) [Example 354], the IC50 was determined as 6.8 nM.

As for `N#CC(Cc1ccc2[nH]c3ccccc3c2c1)NC(=O)[C@H]1N[C@@H]2CC[C@H]1C2` (some centres unmarked) [Example 213], the half-maximal inhibitory concentration (IC50) came out at 619 nM.

In the case of `CN1CC2CCN(c3ccc(C[C@@H](C#N)NC(=O)[C@H]4N[C@@H]5CC[C@H]4C5)c(F)c3)C2C1` (some centres unmarked) [Example 353], the IC50 turned out to be 6.5 nM.

In the case of `N#C[C@H](Cc1ccc(-c2cnc(C3CC3)s2)cc1F)NC(=O)[C@H]1N[C@@H]2CC[C@H]1C2` [Example 173], the 50% inhibitory concentration (IC50) amounted to 5.5 nM.

With `CS(=O)(=Nc1cccc(-c2ccc(C[C@@H](C#N)NC(=O)[C@H]3N[C@@H]4CC[C@H]3C4)c(F)c2)c1)C1CCOCC1` (some centres unmarked) [Example 264], the IC50 is 17 nM.

As for `CCc1cc(-c2ccc(C[C@@H](C#N)NC(=O)[C@H]3N[C@@H]4CC[C@H]3C4)c(F)c2)nn1CC(C)C` [Example 273], the half-maximal inhibitory concentration (IC50) was determined as 28.9 nM.

Turning to `N#CC(Cc1ccc2c(c1)CCc1ccccc1-2)NC(=O)[C@H]1N[C@@H]2CC[C@H]1C2` (some centres unmarked) [Example 209], the half-maximal inhibitory concentration (IC50) is 45.8 nM.

For `COC(=O)c1cccc2c1[nH]c(=O)c1cc(CC(C#N)NC(=O)[C@H]3N[C@@H]4CC[C@H]3C4)ccc12` (some centres unmarked) [Example 311], the IC50 came out at 9.9 nM.

Take `CCOc1nc(-c2ccc(C[C@@H](C#N)NC(=O)[C@H]3N[C@@H]4CC[C@H]3C4)c(F)c2)cs1` [Example 172]: the IC50 is 5.2 nM.

`N#CC(Cc1ccc2c(c1)[nH]c(=O)c1ccccc12)NC(=O)[C@H]1N[C@@H]2CC[C@H]1C2` (stereo partly drawn) [Example 123, (1S,2S,4R)—N-[1-cyano-2-(6-oxo-5H-phenanthridin-3-yl)ethyl]-3-azabicyclo[2.2.1]heptane-2-carboxamide]: the IC50 was 187 nM.

On to `Cn1c(=O)c2cc(CC(C#N)NC(=O)[C@H]3N[C@@H]4CC[C@H]3C4)ccc2c2ccccc21` (some centres unmarked) [Example 206], for which the half-inhibitory concentration (IC50) was 26.3 nM.

Turning to `CN(C)CCn1ccc(-c2ccc(C[C@@H](C#N)NC(=O)[C@H]3N[C@@H]4CC[C@H]3C4)c(F)c2)cc1=O` [Example 256], the IC50 was 26.3 nM.

With `N#C[C@H](Cc1ccc(-c2cnn(S(=O)(=O)c3ccccc3)c2)cc1F)NC(=O)[C@H]1N[C@@H]2CC[C@H]1C2` [Example 243], the 50% inhibitory concentration (IC50) worked out at 4.8 nM.

As to `CN1CCCN(S(=O)(=O)c2ccc(-c3ccc(C[C@@H](C#N)NC(=O)[C@H]4N[C@@H]5CC[C@H]4C5)c(F)c3)cc2)CC1` [Example 340], the IC50 is 1.8 nM.

As to `N#C[C@H](Cc1ccc(-c2ccc(C(=O)N3CCOCC3)cc2)cc1F)NC(=O)[C@H]1N[C@@H]2CC[C@H]1C2` [Example 202], the IC50 was found to be 22.9 nM.

Consider `N#C[C@H](Cc1ccc(-c2csc(C(=O)N3CCn4nccc4C3)c2)cc1F)NC(=O)[C@H]1N[C@@H]2CC[C@H]1C2` [Example 226], for which the IC50 is 0.9 nM.

For the compound `CN(C)C(=O)c1cnn(-c2ccc(C[C@@H](C#N)NC(=O)[C@H]3N[C@@H]4CC[C@H]3C4)c(F)c2)c1` [Example 286], the 50% inhibitory concentration (IC50) came to 38.9 nM.

As for `N#C[C@H](Cc1ccc(-c2csc(C(=O)N3CCN(CC(F)(F)F)CC3)c2)cc1F)NC(=O)[C@H]1N[C@@H]2CC[C@H]1C2` [Example 232], the IC50 turned out to be 2.2 nM.

On to `N#C[C@H](Cc1ccc(-c2cnc3cccnn23)cc1F)NC(=O)[C@H]1N[C@@H]2CC[C@H]1C2` [Example 174], for which the IC50 was found to be 5.6 nM.

As for `CN1CCO[C@@H]2CCN(c3ccc(C[C@@H](C#N)NC(=O)[C@H]4N[C@@H]5CC[C@H]4C5)c(F)c3)C[C@@H]21` [Example 356], the 50% inhibitory concentration (IC50) came out at 20 nM.

Take `N#C[C@H](Cc1ccc(-c2cnn3cccnc23)cc1F)NC(=O)[C@H]1N[C@@H]2CC[C@H]1C2` [Example 168]: the half-maximal inhibitory concentration (IC50) is 3.7 nM.

For `N#C[C@H](Cc1ccc(OCc2ccccc2)cc1F)NC(=O)[C@H]1N[C@@H]2CC[C@H]1C2` [Example 290], the 50% inhibitory concentration (IC50) turned out to be 20.6 nM.

Consider `N#C[C@H](Cc1ccc(C2CCN(C3CCOC3)CC2)cc1F)NC(=O)[C@H]1N[C@@H]2CC[C@H]1C2` (some centres unmarked) [Example 337], for which the half-maximal inhibitory concentration (IC50) was 28.2 nM.

Regarding `N#CC(Cc1cccc2[nH]c(=O)c3ccccc3c12)NC(=O)[C@H]1N[C@@H]2CC[C@H]1C2` (stereo partly drawn) [Example 128, (1S,2S,4R)—N-[1-cyano-2-(6-oxo-5H-phenanthridin-1-yl)ethyl]-3-azabicyclo[2.2.1]heptane-2-carboxamide], the half-maximal inhibitory concentration (IC50) turned out to be 2390 nM.

In the case of `Cn1c(=O)oc2ccc(-c3ccc(C[C@@H](C#N)NC(=O)[C@H]4N[C@H]5C[C@@H]4[C@@H]4C[C@@H]45)c(F)c3)cc21` [Example 129], the half-inhibitory concentration (IC50) amounted to 82.7 nM.

As to `COCC(=O)n1cc(-c2ccc(C[C@@H](C#N)NC(=O)[C@H]3N[C@@H]4CC[C@H]3C4)c(F)c2)cn1` [Example 87], the 50% inhibitory concentration (IC50) was 14.2 nM.

Turning to `N#CC(Cc1ccc2c(cnc3ccccc32)c1)NC(=O)[C@H]1N[C@@H]2CC[C@H]1C2` (some centres unmarked) [Example 316], the 50% inhibitory concentration (IC50) was found to be 42.4 nM.

`CN1CCN(S(=O)(=O)c2cc(-c3ccc(C[C@@H](C#N)NC(=O)[C@H]4N[C@@H]5CC[C@H]4C5)c(F)c3)ccc2F)CC1` [Example 339]: the IC50 stood at 1.3 nM.

With `N#C[C@H](Cc1ccc(N2CCN(C3CCOCC3)CC2)cc1F)NC(=O)[C@H]1N[C@@H]2CC[C@H]1C2` [Example 336], the IC50 was found to be 24.5 nM.

As for `N#C[C@H](Cc1cc(-c2cccc(O)n2)ccc1F)NC(=O)[C@H]1N[C@@H]2CC[C@H]1C2` [Example 317], the IC50 worked out at 52 nM.

As to `Cc1cn(C)c(-c2ccc(C[C@@H](C#N)NC(=O)[C@H]3N[C@@H]4CC[C@H]3C4)c(F)c2)n1` [Example 208], the concentration for half-maximal inhibition (IC50) stood at 29.8 nM.

With `CN1CCN(c2ccc(F)c(C[C@@H](C#N)NC(=O)[C@H]3N[C@@H]4CC[C@H]3C4)c2)CC1` [Example 318], the IC50 stood at 212 nM.

Take `CC(C)N1CCC(c2ccc(C[C@@H](C#N)NC(=O)[C@H]3N[C@@H]4CC[C@H]3C4)c(F)c2)CC1` [Example 280]: the IC50 came to 21.2 nM.

With `Cn1cc(-c2ccc(C[C@@H](C#N)NC(=O)[C@H]3N[C@@H]4CC[C@H]3C4)c(F)c2)cn1` [Example 163], the concentration for half-maximal inhibition (IC50) is 2.1 nM.

With `CS(=O)(=O)c1cc(-c2ccc(C[C@@H](C#N)NC(=O)[C@H]3N[C@H]4CC[C@@H]3C4)c(F)c2)ccc1C#N` [Example 214], the IC50 came out at 815 nM.

In the case of `CC(C)N1CCN(C(=O)c2cc(-c3ccc(C[C@@H](C#N)NC(=O)[C@H]4N[C@@H]5CC[C@H]4C5)c(F)c3)cs2)CC1` [Example 227], the concentration for half-maximal inhibition (IC50) is 1 nM.

Consider `CN1CCO[C@@H]2CN(c3ccc(C[C@@H](C#N)NC(=O)[C@H]4N[C@@H]5CC[C@H]4C5)c(F)c3)C[C@@H]21` [Example 355], for which the 50% inhibitory concentration (IC50) is 22.4 nM.

On to `N#Cc1cc2c(cc1C(F)(F)F)[nH]c(=O)c1cc(CC(C#N)NC(=O)[C@H]3N[C@@H]4CC[C@H]3C4)ccc12` (some centres unmarked) [Example 302], for which the concentration for half-maximal inhibition (IC50) was 4.7 nM.

For `N#Cc1ccc(-c2ccc(C[C@@H](C#N)NC(=O)[C@H]3N[C@H]4C[C@@H]3[C@@H]3C[C@@H]34)c(F)c2)cn1` [Example 142], the IC50 was 63.1 nM.

Regarding `N#C[C@H](Cc1ccc(-c2ccc(S(=O)(=O)N3CCCCC3)cc2)cc1F)NC(=O)[C@H]1N[C@@H]2CC[C@H]1C2` [Example 177], the IC50 was determined as 7.4 nM.

Turning to `CN(C)C(=O)c1ccc(-c2ccc(C[C@@H](C#N)NC(=O)[C@H]3N[C@@H]4CC[C@H]3C4)c(F)c2)cc1` [Example 211], the IC50 worked out at 61.1 nM.

As for `N#C[C@H](Cc1ccc2c(c1F)CCC(N1CCOCC1)C2)NC(=O)[C@H]1N[C@@H]2CC[C@H]1C2` (some centres unmarked) [Example 351], the IC50 was determined as 82.8 nM.

As for `N#C[C@H](Cc1ccc(-n2cc(C(=O)N3CCOCC3)cn2)cc1F)NC(=O)[C@H]1N[C@@H]2CC[C@H]1C2` [Example 287], the IC50 was determined as 39.7 nM.

In the case of `N#C[C@H](Cc1ccc(C2CCCN(C3CCOC3)C2)cc1F)NC(=O)[C@H]1N[C@@H]2CC[C@H]1C2` (some centres unmarked) [Example 338], the 50% inhibitory concentration (IC50) turned out to be 44.3 nM.

As to `N#C[C@H](Cc1ccc(-c2ccc(C(=O)N3CCCCC3)cc2)cc1F)NC(=O)[C@H]1N[C@@H]2CC[C@H]1C2` [Example 210], the IC50 amounted to 49.4 nM.
